Laboratory results published in the supplement of paper PMC10307832.

Tests used:
Experiment in all cases: relative viability (nuclei count vs DMSO), 5 days (fraction); higher = more cells survive
CAP-232 = compound: C[C@H]([C@@H](C(=O)N)NC(=O)[C@@H]1CSSC[C@@H](C(=O)N[C@H](C(=O)N[C@@H](C(=O)N[C@H](C(=O)N1)CCCCN)CC2=CNC3=CC=CC=C32)CC4=CC=C(C=C4)O)NC(=O)[C@@H](CC5=CC=CC=C5)N)O [CAP-232]
Outline: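 Following overnight incubation at 37 °C, lung cancer cell lines in 1536-well plates were pinned with five library-drug doses (not always all listed) in √10 steps on vehicle-anchored plates. The cells then spent 5 days without medium change before a combined fix, permeabilisation and Hoechst stain, 4× imaging and MetaXpress nuclear counts. Viability is the treated-to-vehicle ratio of nuclei, taken as the median across plates. Only plates with control CV below 25% and at least one doubling passed.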

CAP-232 + Trametinib = compound: C[C@H]([C@@H](C(=O)N)NC(=O)[C@@H]1CSSC[C@@H](C(=O)N[C@H](C(=O)N[C@@H](C(=O)N[C@H](C(=O)N1)CCCCN)CC2=CNC3=CC=CC=C32)CC4=CC=C(C=C4)O)NC(=O)[C@@H](CC5=CC=CC=C5)N)O [CAP-232] + CC(=O)Nc1cccc(-n2c(=O)n(C3CC3)c(=O)c3c(Nc4ccc(I)cc4F)n(C)c(=O)c(C)c32)c1 [Trametinib] (partner 0.02 µM)
Outline: (§1)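 Relative viability divides the nuclei count in treated wells by that in vehicle wells. Lung cancer cell lines were seeded in 1536-well plates, dosed by pin tool the next day, and fixed and stained after 5 days in one step with final 0.05% Triton X-100, 1% formaldehyde and 1 ug/ml Hoechst. Dosing was a single drug or a fixed anchor-drug dose plus five library-drug doses (not always all listed) in √10 steps, and values are medians of duplicate plates imaged at 4×.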

CAP-232 + Palbociclib = compound: C[C@H]([C@@H](C(=O)N)NC(=O)[C@@H]1CSSC[C@@H](C(=O)N[C@H](C(=O)N[C@@H](C(=O)N[C@H](C(=O)N1)CCCCN)CC2=CNC3=CC=CC=C32)CC4=CC=C(C=C4)O)NC(=O)[C@@H](CC5=CC=CC=C5)N)O [CAP-232] + CC(=O)c1c(C)c2cnc(Nc3ccc(N4CCNCC4)cn3)nc2n(C2CCCC2)c1=O [Palbociclib] (partner 0.5 µM)
Outline: as §1

CAP-232 + OSI-027 = compound: C[C@H]([C@@H](C(=O)N)NC(=O)[C@@H]1CSSC[C@@H](C(=O)N[C@H](C(=O)N[C@@H](C(=O)N[C@H](C(=O)N1)CCCCN)CC2=CNC3=CC=CC=C32)CC4=CC=C(C=C4)O)NC(=O)[C@@H](CC5=CC=CC=C5)N)O [CAP-232] + COc1cccc2cc(-c3nc([C@H]4CC[C@H](C(=O)O)CC4)n4ncnc(N)c34)[nH]c12 [OSI-027] (partner 0.5 µM)
Outline: as §1

CAP-232 + Tozasertib = compound: C[C@H]([C@@H](C(=O)N)NC(=O)[C@@H]1CSSC[C@@H](C(=O)N[C@H](C(=O)N[C@@H](C(=O)N[C@H](C(=O)N1)CCCCN)CC2=CNC3=CC=CC=C32)CC4=CC=C(C=C4)O)NC(=O)[C@@H](CC5=CC=CC=C5)N)O [CAP-232] + Cc1cc(Nc2cc(N3CCN(C)CC3)nc(Sc3ccc(NC(=O)C4CC4)cc3)n2)n[nH]1 [Tozasertib] (partner 0.1 µM)
Outline: as §1

CAP-232 + AZD7762 = compound: C[C@H]([C@@H](C(=O)N)NC(=O)[C@@H]1CSSC[C@@H](C(=O)N[C@H](C(=O)N[C@@H](C(=O)N[C@H](C(=O)N1)CCCCN)CC2=CNC3=CC=CC=C32)CC4=CC=C(C=C4)O)NC(=O)[C@@H](CC5=CC=CC=C5)N)O [CAP-232] + NC(=O)Nc1cc(-c2cccc(F)c2)sc1C(=O)N[C@H]1CCCNC1 [AZD7762] (partner 0.2 µM)
Outline: as §1

CAP-232 + Pemetrexed = compound: C[C@H]([C@@H](C(=O)N)NC(=O)[C@@H]1CSSC[C@@H](C(=O)N[C@H](C(=O)N[C@@H](C(=O)N[C@H](C(=O)N1)CCCCN)CC2=CNC3=CC=CC=C32)CC4=CC=C(C=C4)O)NC(=O)[C@@H](CC5=CC=CC=C5)N)O [CAP-232] + Nc1nc2[nH]cc(CCc3ccc(C(=O)N[C@@H](CCC(=O)O)C(=O)O)cc3)c2c(=O)[nH]1 [Pemetrexed] (partner 0.2 µM)
Outline: as §1

CAP-232 + Decitabine = compound: C[C@H]([C@@H](C(=O)N)NC(=O)[C@@H]1CSSC[C@@H](C(=O)N[C@H](C(=O)N[C@@H](C(=O)N[C@H](C(=O)N1)CCCCN)CC2=CNC3=CC=CC=C32)CC4=CC=C(C=C4)O)NC(=O)[C@@H](CC5=CC=CC=C5)N)O [CAP-232] + Nc1ncn([C@H]2C[C@H](O)[C@@H](CO)O2)c(=O)n1 [Decitabine] (partner 2 µM)
Outline: as §1

CAP-232 + Vorinostat = compound: C[C@H]([C@@H](C(=O)N)NC(=O)[C@@H]1CSSC[C@@H](C(=O)N[C@H](C(=O)N[C@@H](C(=O)N[C@H](C(=O)N1)CCCCN)CC2=CNC3=CC=CC=C32)CC4=CC=C(C=C4)O)NC(=O)[C@@H](CC5=CC=CC=C5)N)O [CAP-232] + O=C(CCCCCCC(=O)Nc1ccccc1)NO [Vorinostat] (partner 1 µM)
Outline: as §1

CAP-232 + Olaparib = compound: C[C@H]([C@@H](C(=O)N)NC(=O)[C@@H]1CSSC[C@@H](C(=O)N[C@H](C(=O)N[C@@H](C(=O)N[C@H](C(=O)N1)CCCCN)CC2=CNC3=CC=CC=C32)CC4=CC=C(C=C4)O)NC(=O)[C@@H](CC5=CC=CC=C5)N)O [CAP-232] + O=C(c1cc(Cc2n[nH]c(=O)c3ccccc23)ccc1F)N1CCN(C(=O)C2CC2)CC1 [Olaparib] (partner 8 µM)
Outline: as §1

NCI-H1648
relative viability (CAP-232; 0.4 µM): 0.984 | relative viability (CAP-232; 1.265 µM): 0.761 | relative viability (CAP-232; 4 µM): 0.914 | relative viability (CAP-232; 12.65 µM): 0.885 | relative viability (CAP-232 + Trametinib; first compound 0.4 µM): 0.358 | relative viability (CAP-232 + Trametinib; first compound 4 µM): 0.314 | relative viability (CAP-232 + Trametinib; first compound 12.65 µM): 0.472 | relative viability (CAP-232 + Palbociclib; first compound 0.4 µM): 0.27 | relative viability (CAP-232 + Palbociclib; first compound 4 µM): 0.293 | relative viability (CAP-232 + Palbociclib; first compound 12.65 µM): 0.252 | relative viability (CAP-232 + OSI-027; first compound 0.4 µM): 0.238 | relative viability (CAP-232 + OSI-027; first compound 1.265 µM): 0.241 | relative viability (CAP-232 + OSI-027; first compound 4 µM): 0.265 | relative viability (CAP-232 + OSI-027; first compound 12.65 µM): 0.216 | relative viability (CAP-232 + Tozasertib; first compound 0.4 µM): 0.35 | relative viability (CAP-232 + Tozasertib; first compound 1.265 µM): 0.594 | relative viability (CAP-232 + Tozasertib; first compound 4 µM): 0.441 | relative viability (CAP-232 + Tozasertib; first compound 12.65 µM): 0.4 | relative viability (CAP-232 + AZD7762; first compound 0.4 µM): 0.618 | relative viability (CAP-232 + AZD7762; first compound 4 µM): 0.77 | relative viability (CAP-232 + AZD7762; first compound 12.65 µM): 0.532 | relative viability (CAP-232 + Pemetrexed; first compound 0.4 µM): 1.05 | relative viability (CAP-232 + Pemetrexed; first compound 4 µM): 0.92 | relative viability (CAP-232 + Pemetrexed; first compound 12.65 µM): 0.776 | relative viability (CAP-232 + Decitabine; first compound 0.4 µM): 0.524 | relative viability (CAP-232 + Decitabine; first compound 4 µM): 0.565 | relative viability (CAP-232 + Decitabine; first compound 12.65 µM): 0.466 | relative viability (CAP-232 + Vorinostat; first compound 0.4 µM): 0.292 | relative viability (CAP-232 + Vorinostat; first compound 4 µM): 0.453 | relative viability (CAP-232 + Vorinostat; first compound 12.65 µM): 0.411 | relative viability (CAP-232 + Olaparib; first compound 0.4 µM): 0.698 | relative viability (CAP-232 + Olaparib; first compound 4 µM): 0.664 | relative viability (CAP-232 + Olaparib; first compound 12.65 µM): 0.644
